# Where a name gives a salt, the structure may show the parent alone.
# Biological target: human Mnk2a (Homo sapiens (Human), UniProt Q9HBH9)
# Assay: Mnk2a in vitro kinase assay (indirect competitive fluorescence polarization)
# Assay type: biochemical
# Conditions: pre-activated GST-Mnk2a 2.5 nM, 20 μM ATP, 30 μM substrate peptide; read-out: MNK2 IC50
# Procedure: Inhibitory potency of compounds against Mnk1, Mnk2a and other kinases was assessed with assays based on a format known to those skilled in the art as the indirect (competitive) fluorescence polarization. The assay detection system comprises a small fluorophore-labeled phospho-peptide (termed ligand) bound to a phospho-specific antibody. The product generated by the kinase reaction competes with the ligand for antibody binding. Based on the larger molecular volume of the bound ligand, which results in a lower rotation rate in solution, its emitted light has a higher degree of polarization than the one from the free ligand.
# In brief, the open reading frames of human Mnk1 and Mnk2a were amplified from cDNA using the forward/reverse primer pairs
# (utilized restriction sites underlined), respectively, and cloned into the BamHI and SalI sites of the vector pGEX-4T1 (Amersham, Sweden, cat. no. 27-4580-01). These constructs allow prokaryotic expression of Mnk1 or Mnk2a as fusion protein with a N-terminal glutathione S-transferase (GST) tag, referred to as GST-Mnk1 or GST-Mnk2a. The following expression and purification procedure was identical for GST-Mnk1 and GST-Mnk2a, referring in general to GST-Mnk, when not distinguishing between the two isoforms. Expression of GST-Mnk was in E. coli BL21 (Merck Biosciences, Germany, cat. no. 69449). Cells were grown in LB-Bouillon (Merck, Germany, cat. no. 1.10285) supplemented with 100 μg/ml ampicillin (Sigma, Germany, cat. no. A9518) at 37° C. […] Cells harvested by centrifugation were resuspended in 10 ml lysis buffer (50 mM tris(hydroxymethyl)aminomethane hydrochloride (Tris/HCl, Sigma, Germany, cat. no. T5941) pH 7.5, 300 mM sodium chloride (NaCl, Sigma, Germany, cat. no. S7653), 5% (w/v) glycerol (Sigma, Germany, cat. no. G5516), 3 mM DTT dithiotreitol (DTT, Sigma, Germany, cat. no. D9779)) per gram wet weight cell pellet. Lysates were prepared by disruption of cells with a sonifier and subsequent clearing by centrifugation at 38000 g for 45 min at 4° C.
# The lysate was applied to a GSTPrep FF 16/10 column (Amersham, Sweden, cat. no. 17-5234-01) equilibrated with lysis buffer. Removal of unbound material was with 3 column volumes (CV) lysis buffer. Elution was with 2 CV of elution buffer (50 mM Tris/HCl pH 7.5, 300 mM NaCl, 5% (w/v) glycerol, 20 mM glutathione (Sigma, Germany, cat. no. G4251)). Peak fractions were pooled and the protein transferred into storage buffer (50 mM Tris/HCl pH 7.5, 200 mM NaCl, 0.1 mM ethylene glycol[…] bis(2-aminoethylether)-N,N,N′,N′-tetraacetic acid (EGTA, Aldrich, Germany, cat. no. 23, 453-2), 1 mM DTT, 10% (w/v) glycerol, 0.5 M sucrose (Sigma, Germany, cat. no. S0389) by gel filtration on a PD10 desalting column (Amersham, Sweden, cat. no. 17-0851-01). Aliquots were shock frozen in liquid nitrogen and stored at −80° C.
# Activation of Mnk1 and Mnk2a was at a concentration of 2.5 μM of either purified GST-Mnk1 or GST-Mnk2a by incubation with 150 nM pre-activated NHis-ERK2 (see ERK2 assay for preparation) and 50 μM adenosine triphosphate (ATP, Sigma, cat. no. A2699) in a buffer comprising 20 mM N-(2-hydroxyethyl)piperazine-N′-(2-ethanesulfonic acid) (HEPES, Fluka, Germany, cat. no 54459)/potassium hydroxide (KOH, Roth, Germany, cat. no 6751.1) pH 7.4, 10 mM magnesium chloride (MgCl2, Sigma, Germany, cat. no. M2670), 0.25 mM DTT, 0.05% (w/v) polyoxyethylene 20 stearylether (Brij 78, Sigma, Germany, cat. no. P4019) (HMDB buffer) for 45 min at 30° C. After the incubation, the preparation was aliquoted into single-use samples, shock frozen in liquid nitrogen, stored at −80° C. and utilized for Mnk1 or Mnk2a kinase assays as detailed below.
# The serine residue phosphorylated by Mnk kinases is underlined.
# Chain of human Mnk2a (Q9HBH9 whole entry): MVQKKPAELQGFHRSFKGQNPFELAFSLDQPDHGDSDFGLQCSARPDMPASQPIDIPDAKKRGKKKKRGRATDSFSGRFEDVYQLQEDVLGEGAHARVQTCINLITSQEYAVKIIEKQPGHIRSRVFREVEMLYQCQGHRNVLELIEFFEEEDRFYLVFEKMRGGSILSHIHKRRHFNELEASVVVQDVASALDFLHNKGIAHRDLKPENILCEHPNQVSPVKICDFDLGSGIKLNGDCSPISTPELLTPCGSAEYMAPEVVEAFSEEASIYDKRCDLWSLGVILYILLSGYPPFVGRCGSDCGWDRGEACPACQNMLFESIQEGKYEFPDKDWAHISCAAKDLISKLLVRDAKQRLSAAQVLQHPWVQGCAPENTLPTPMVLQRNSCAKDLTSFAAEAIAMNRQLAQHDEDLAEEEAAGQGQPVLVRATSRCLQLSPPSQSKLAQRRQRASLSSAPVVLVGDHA
row,IC50 [nM],Compound
1,16,Cc1c(C(N)=O)sc2ncnc(Nc3ccc(F)cc3OCC(F)F)c12 [Compound 32-17]
2,1170,"COC(=O)c1sc2ncnc(Nc3ccc(F)cc3OC(CN)CNS(C)(=O)=O)c2c1C (stereo not shown) [Compound 19-2, Methyl 4-(2-(1-amino-3-(methyl-sulfonamido)-propan-2-yloxy)-4-fluoro-phenylamino)-5-methylthieno[2,3-d]pyrimidine-6-carboxylate trifluoroacetate]"
3,691,"COC(=O)c1sc2ncnc(Nc3ccc(F)cc3OC(CN)CN)c2c1C [Compound 18-2, Methyl 4-(2-(1,3-diaminopropan-2-yloxy)-4-fluorophenylamino)-5-methylthieno[2,3-d]pyrimidine-6-carboxylate bis(trifluoroacetate)]"
4,11,"CCNC(=O)C(C)Oc1cc(F)ccc1Nc1ncnc2sc(C(N)=O)c(C)c12 (stereo not shown) [Compound 31-5, 4-(2-(1-(Ethylamino)-1-oxopropan-2-yloxy)-4-fluorophenylamino)-5-methyl-thieno[2,3-d]pyrimidine-6-carboxamide]"
5,8,"CNC(=O)c1sc2ncnc(Nc3ccc(F)cc3OC(CF)CF)c2c1C [Compound 23-4, 4-(2-(1,3-difluoro-propan-2-yloxy)-4-fluorophenylamino)-N,5-dimethylthieno [2,3d]pyrimidine-6-carboxamide]"
6,6,Cc1c(C(=O)NCCCN2CCCC2)sc2ncnc(Nc3ccc(F)cc3OC(C)CF)c12 (stereo not shown) [Compound 32-44]
7,230,"Cc1c(C(N)=O)sc2ncnc(Nc3ccc(F)cc3OC(C)CNC(=O)OC(C)(C)C)c12 (stereo not shown) [Compound 5, tert-Butyl 2-(2-(6-carbamoyl-5-methyl-thieno[2,3-d]pyrimidin-4-ylamino)-5-fluorophenoxy)propylcarbamate]"
8,26,COCC(CF)Oc1cc(F)ccc1Nc1ncnc2sc(C(=O)NCCO)c(C)c12 (stereo not shown) [Compound 32-23]
9,22,Cc1c(C(=O)NCC#CCN(C)C)sc2ncnc(Nc3cccnc3OC(C)C)c12 [Compound 36-16]
10,288,"Cc1c(C(=O)NCCCN(C)C)sc2ncnc(Nc3cccnc3OCCO)c12 [Compound 29-4, N-(3-(dimethyl-amino)propyl)-4-(2-(2-hydroxy-ethoxy)pyridin-3-ylamino)-5-methylthieno[2,3-d]pyrimidine-6-carboxamide hydrochloride]"
11,25,"Cc1c(C(=O)NCC2CNCCO2)sc2ncnc(Nc3cccnc3OC(C)C)c12 (stereo not shown) [Compound 36-5, 4-(2-Isopropoxypyridin-3-ylamino)-5-methyl-N-(morpholin-2ylmethyl) thieno[2,3-d]pyrimidine-6-carboxamide]"
12,174,"COC(=O)c1sc2ncnc(Nc3cccnc3OC(C)CCN)c2c1C (stereo not shown) [Compound 15-2, Methyl 4-(2-((4-aminobutan-2yloxy)pyridin-3ylamino)-5-methyl-thieno[2,3-d]pyrimidine-6-carboxylate trifluoroacetate]"
13,26,Cc1c(C(=O)NCCCN(C)C)sc2ncnc(Nc3ccc(F)cc3OCCC(F)(F)F)c12 [Compound 32-38]
14,62,"Cc1c(C(=O)NCCO)sc2ncnc(Nc3cccnc3OC(C)CCNS(C)(=O)=O)c12 (stereo not shown) [Compound 43, 4-[2-(3-Methanesulfonylamino-1-methyl-propoxy)-pyridin-3-ylamino]-5-methyl-thieno[2,3-d]pyrimidine-6-carboxylic acid (2-hydroxy-ethyl)-amide]"
15,7,"Cc1c(C(=O)NCC#N)sc2ncnc(Nc3ccc(C#N)cc3OC(CF)CF)c12 [Compound 53, 4-(4-Cyano-2-(2-fluoro-1-fluoromethyl-ethoxy)-phenylamino]-5-methyl-thieno[2,3-d]pyrimidine-6-carboxylic acid cyanomethyl-amide]"
16,577,"COC(=O)c1sc2ncnc(Nc3ccc(F)cc3OCCN)c2c1C [Compound 9-2, Methyl 4-(2-(2-aminoethoxy)-4-fluorophenylamino)-5-methyl-thieno[2,3-d]pyrimidine-6-carboxylate hydrochloride]"
